These results are taken from patent US20240182526A1, “COMPOSITIONS AND METHODS FOR MODULTING INFLAMMATORY AND DEGENERATIVE DISORDER” (University of Southern California, priority 2021, published 2024).

For one experiment, the system named is canine OA model. Description: Canine osteoarthritis model (medial meniscal release). The class given is in vivo, dog. As to conditions: for histological (OARSI) scores of joint sections, matrix catabolism: intra-articular injections at post-operative weeks 4 and 11. The method, then: Single-cell sequencing using 10× Genomics. Single cell samples were prepared using Next GEM Single Cell 5′ v2 (dual index) and Chip Kit (10× Genomics) according to the manufacturer's protocol. Briefly samples were FACS sorted using DAPI to select live cells followed by resuspension in 0.04% BSA-PBS. Nearly 1200 cells/μl were added to each well of the chip with a target cell recovery estimate of 10000 cells. Thereafter Gel bead-in Emulsions (GEMs) were generated using GemCode Single-Cell Instrument. GEMs were reverse transcribed, droplets were broken and single stranded cDNA was isolated. cDNAs were cleaned up with DynaBeads and amplified. Finally, cDNAs were ligated with adapters, post-ligation products were amplified, cleaned-up with SPRIselect and purified libraries were sequenced on Novaseq.
10× Sequencing data analysis. Raw sequencing reads were processed using Partek Flow Analysis Software (build version 10.0.21.0210). Briefly, raw reads were checked for their quality, trimmed and reads with an average base quality score per position>30 were considered for alignment. Trimmed reads were aligned to the dog genome version canFam3-Ensembl_v102 using STAR-2.6.1d with default parameters. Reads with alignment percentage >75% were deduplicated based on their unique molecular identifiers (UMIs). Reads mapping to the same chromosomal location with duplicate UMIs were removed. Thereafter ‘Knee’ plot was constructed using the cumulative fraction of reads/UMIs for all barcodes. Barcodes […] the cut-off defined by the location of the knee were assigned as true cell barcodes and quantified. Further noise filtration was done by removing cells having >5% mitochondrial counts and total read counts >24,000. Genes not expressed in any cell were also removed as an additional clean-up step. Cleaned-up reads were normalized using counts per million (CPM) method followed by log-transformation generating count matrices for each sample. Samples were batch-corrected on the basis of expressed genes and mitochondrial reads percent. Count matrices were used to visualize and explore the samples in further details by generating tSNE plots, a non-linear dimensional reduction technique. This algorithm learns the underlying manifold of the data and places similar cells together in a low-dimensional space. Gene ontology enrichment analysis for the differentially expressed genes was performed using DAVID Gene Functional Classification Tool ([http://]david.abcc.ncifcrf.gov; version 6.8). Dot plots were generated in R (v4.0.3) using ggplot2(v3.3.3).
Immunohistochemistry. Histological staining for was performed on wild type (WT) mice, F814 mice and all mice that underwent destabilization of the medial meniscus (DMM). Six weeks after surgery, mice were sacrificed and joints were fixed in 10% formalin, decalcified in 10% EDTA and embedded in paraffin. For rat model, 6 weeks after partial medial meniscectomy (PMM), rats were sacrificed and joints were fixed in 10% formalin, decalcified in 10% EDTA and embedded in paraffin. A total of three 8 μm thick sections were made at a 200 μm interval by coronal sectioning. For canine model, 4 and 16 weeks after medial meniscal release (MMR), dogs were sacrificed and joints were fixed in 10% formalin, decalcified in 10% EDTA and embedded in paraffin. No animals were excluded from analysis. A microtome (Leica) was used to cut 5-μm sections for joints. H&E staining was performed to assess morphology. Safranin O/Fast Green staining, immunohistochemistry for proteolytic enzymes and Osteoarthritis Research Society International (OARSI) scoring was performed as described (41, 42). For OARSI scoring, observers performing the analysis were blinded as whether the slides were from treated or control animals. The stained samples were visually observed using LSCM (Zeiss LSM710, Carl Zeiss, Germany).
Canine osteoarthritis model. […]

The test system of experiment [1] is ADAMTS4, ADAMTS5 and MMP13 transcription. Description: qPCR of matrix-degrading genes in OSM-stimulated pig articular chondrocytes. In kind it is cell-based. Particulars: 48 hours. The method, then:
Quantitative Real-Time PCR. Power SYBR Green (Applied Biosystems) RT-PCR amplification and detection was performed using an Applied Biosystems Step One Plus Real-Time PCR machine. The comparative Ct method for relative quantification (2-ΔΔCt) was used to quantitate gene expression. TBP (TATA-box binding protein) was used for gene normalization and expressed relative to a calibrator (sample in each set with lowest expression). Q-PCR for was conducted using the following primers: human: TBP forward, 5′ GATGGACGTTCGGTTTAGG 3′ (SEQ ID NO:28); TBP reverse, 5′ AGCAGCACAGTACGAGCAA 3′ (SEQ ID NO:29), MMP13 forward, 5′ […] 3′(SEQ ID NO:30); MMP13 reverse, 5′ GAACCCCGCATCTTGGCTT 3′ (SEQ ID NO:31), ADAMTS5 forward 5′ […] 3′ (SEQ ID NO:32); ADAMTS5 reverse, 5′ […] 3′ (SEQ ID NO:33), ADAMTS4 forward 5′ […] 3′ (SEQ ID NO:34); ADAMTS4 reverse, 5′ […] 3′ (SEQ ID NO:35), Collagen II forward, 5′ […] 3′ (SEQ ID NO:36); Collagen II reverse 5′ […] 3′ (SEQ ID NO:37); Aggrecan forward, 5′ AGGCAGCGTGATCCTTACC 3′ (SEQ ID NO:38); Aggrecan reverse, 5′ […] 3′ (SEQ ID NO:39). Cells were treated with 10 ng/mL OSM and/or with 5 μM SRC (SU6656) inhibitor, 10 ng/mL OSM and/or 50 ng/mL WT/F814 plasmids; 10 ng/mL OSM and/or 100 or 300 ug/mL of peptide QQpYF (Evseenko lab, Thermo Scientific); 10 uM R805 and/or 10 ng/mL OSM.

“Also recorded” adds a separate entry of the source.

With `Cc1ccc(-c2csc(NC(=O)c3ccccn3)n2)cc1` [Peptide R805], in the experiment with canine OA model (0.1 μg dose group (as in saline group)), the “histological abnormalities of cartilage” value is “focal partial- and full thickness cartilage erosions”. For the same compound, the “cortical outline of the medial tibial plateau” value in the experiment with canine OA model (10 ug and 1 ug doses) is recorded as “almost no change in the cortical outline”. Besides, the “bone mineral density (sclerosis) in medial compartment of the operated stifle, microCT” value with canine OA model (10 and 1 μg groups) was “consistent absence of sclerosis”. Moreover, in the experiment with canine OA model (R805-treated vs control dogs), the “scRNA-seq of synoviocytes: joint inflammatory milieu” value is listed as “biases the joint environment away from a chronic inflammatory identity following injury; also recorded: promotes an anti-inflammatory, anti-fibrotic milieu in an injured joint”. Besides, the “knee joint shape change from baseline (serial CT)” value with canine OA model (canine OA model) is reported as “clearly controlled; also recorded: dose-dependent reduction in ectopic bone formation”. Moreover, the “pain (Colorado Pain Scores)” value with canine OA model (canine OA model) is given as “minimal pain”; with canine OA model (canine OA model, listed as CX-011) it was “profound effect on alleviating pain”. For the same compound, the “subchondral sclerosis / BMD in the contralateral, non-operated knee” value with canine OA model (canine OA model) is listed as “did not develop subchondral sclerosis in the contralateral knee; also recorded: increased with decreasing dose of R805”. Moreover, the synovial membrane inflammation entry in the experiment on canine OA model (high and middle dose groups) is “mild intimal hypertrophy with occasional subintimal mononuclear cell infiltration; also recorded: reduced by mid and high doses of R805”; in the experiment with canine OA model (low dose (as in saline treated dogs)) it was “profound increase in subintimal vasculature, new connective tissue and cellular infiltrate”. Besides, the lameness scores result with canine OA model (high dose group) was “minimal pain (FIG. 5E) and lameness”. Besides, the “histological (OARSI) scores of joint sections, matrix catabolism” value with canine OA model is “dramatically reduces the appearance of OA in rat and canine models; also recorded: incremental improvement in the histological scores as the R805 dose increased”; with canine OA model (listed as CX-011) it was “profound effect on alleviating pain and matrix catabolism”. The “OSM-induced transcription of matrix-degrading genes (ADAMTS4, ADAMTS5, MMP13), qPCR” value in experiment [1] was “able to decrease the MMP13 and ADAMTS4/5 gene expression”.
